Results as given in patent US12599576B2 (ANTECIP BIOVENTURES II LLC, priority 2022, dated 2026).

How the values were obtained:
[1] = Solubility in water of the drug substance powder
[2] = system: patients with agitation associated with Alzheimer's disease; assay: Phase 2/3 randomized, double-blind, controlled clinical trial of DM/BU in agitation associated with Alzheimer's disease; format: in vivo, human
Protocol: A Phase ⅔ randomized, double-blind, controlled, multicenter, U.S. clinical trial was conducted to evaluate the efficacy and safety of DM/BU in patients with agitation associated with Alzheimer's disease. […] An independent data monitoring committee performed an interim futility analysis and recommended no further randomization to the bupropion arm. Subsequently, patients were randomized in a 1:1 ratio to receive DM/BU or placebo. […] The minimum score on the CMAI is 29, corresponding to the total absence of symptoms, with higher scores corresponding to greater agitation. The primary endpoint of the study was the change from baseline in the CMAI total score at Week 5. P-values were calculated based on least square mean estimates.
Inclusion criteria included male or female […], diagnosis of probable Alzheimer's disease, according to the 2011 NIA-AA criteria, diagnosis of agitation, according to the IPA provisional definition of agitation, MMSE score between 10 and 24, an NPI-AA score≥4, and community dwelling. Exclusion criterial included dementia of non-Alzheimer's type and current use of a selective serotonin reuptake inhibitor and/or a serotonin and norepinephrine inhibitor (SSRI/SNRI). Demographics and baseline characteristics are shown in Table 9 of U.S. Pat. No. 10,898,453.

[3] = Inventor's clinical-trial finding: plasma levels in CYP2D6 poor metabolizers vs other patients after combination of bupropion and dextromethorphan; conditions: combination of bupropion and dextromethorphan administered
[4] = CYP2D6 inhibited by administering quinidine; cited from earlier work
[5] = Example 3 / FIG. 1: effect of CYP2D6 poor metabolizer status on pharmacokinetics of the tablet after 8 days of twice daily dosing; conditions: tablet 45 mg dextromethorphan hydrobromide/105 mg bupropion hydrochloride, 8 days twice daily; reference extensive or ultra-extensive CYP2D6 metabolizers; GMR

## CC(NC(C)(C)C)C(=O)c1cccc(Cl)c1.Cl (racemic) [Bupropion hydrochloride, (±)-1-(3-chlorophenyl)-2-[(1,1-dimethylethyl)amino]-1-propanone hydrochloride]
[1]
  solubility in water: highly soluble in water

## CC(NC(C)(C)C)C(=O)c1cccc(Cl)c1 (centres unmarked) [bupropion]
[2]; Week 5 (primary endpoint), placebo 11.5, DM/BU vs placebo p=0.010
  mean reduction from baseline in CMAI total score: 10.0 points
[2]; both, human, in vivo, 5 weeks
  adverse event: diarrhea: 6.1%
  adverse event: dizziness: 10.2%
  adverse event: somnolence: 4.1%
  rate of discontinuation due to adverse events: 2.0%
  serious adverse events reported, patients: 8.2%
[2]; one death in the placebo arm
  deaths in arm: one

## COc1ccc2c(c1)[C@]13CCCC[C@@H]1[C@H](C2)N(C)CC3 [dextromethorphan]
[3]
  Cmax and AUC of dextromethorphan in poor metabolizers vs patients who are not poor metabolizers: significantly higher
[4]
  AUC0-12 of dextromethorphan higher for CYP2D6 poor metabolizers compared to non-poor metabolizers: about 46%
  Cmax of dextromethorphan higher for poor metabolizers compared to non-poor metabolizers: about 40%
[5]
  increase in dextromethorphan AUC0-12 for CYP2D6 poor metabolizers: 3.40 fold
  increase in dextromethorphan Cmax for CYP2D6 poor metabolizers: 3.00 fold

## Br.COc1ccc2c(c1)[C@]13CCCC[C@@H]1[C@H](C2)N(C)CC3 [Dextromethorphan hydrobromide, morphinan, 3-methoxy-17-methyl-, (9α, 13α, 14α), hydrobromide monohydrate]
[1]
  solubility in water: sparingly soluble in water
